For data set [1], the target named is T1, 5-HT2A receptor (Homo sapiens, UniProt P28223).
T1 construct: host or cells: HEK293
Briefly: biochemical. It is filed as binding. The settings on record: 1 nM [^3H]ketanserin, HEK293 stable cell line; read-out: 5-HT2A Receptor Ki (nM) ([^3H]ketanserin). Summed up:
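Test compounds competed with [^3H]ketanserin for receptor binding, and affinity was derived from the radioligand displacement.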

Data set [2] deals with T1, 5-HT2A receptor. The data set is described as follows: cell-based. It counts as cell-based. The settings on record: Ca^2+ flux, agonist; read-out: 5-HT2A EC50.
For a further data set, the target named is T2, 5-HT1A receptor (Homo sapiens, UniProt P08908).
T2 construct: host or cells: CHO cells
T2 sequence (P08908 1-422): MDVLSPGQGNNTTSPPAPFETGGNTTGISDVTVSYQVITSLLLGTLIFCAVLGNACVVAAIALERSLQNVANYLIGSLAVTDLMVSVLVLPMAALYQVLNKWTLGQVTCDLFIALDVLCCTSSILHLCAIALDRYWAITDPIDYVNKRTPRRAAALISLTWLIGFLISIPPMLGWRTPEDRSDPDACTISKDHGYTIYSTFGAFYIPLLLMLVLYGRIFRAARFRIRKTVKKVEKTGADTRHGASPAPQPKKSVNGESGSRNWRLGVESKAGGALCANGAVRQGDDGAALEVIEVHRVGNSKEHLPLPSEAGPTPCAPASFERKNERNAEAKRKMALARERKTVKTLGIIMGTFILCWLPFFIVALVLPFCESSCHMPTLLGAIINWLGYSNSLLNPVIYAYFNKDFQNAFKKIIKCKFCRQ
The data set is described as follows: cell-based.

A further data set deals with T3, 5-HT2B receptor (Homo sapiens, UniProt P41595).
T3 construct: host or cells: HEK293
T3 sequence (P41595 whole entry): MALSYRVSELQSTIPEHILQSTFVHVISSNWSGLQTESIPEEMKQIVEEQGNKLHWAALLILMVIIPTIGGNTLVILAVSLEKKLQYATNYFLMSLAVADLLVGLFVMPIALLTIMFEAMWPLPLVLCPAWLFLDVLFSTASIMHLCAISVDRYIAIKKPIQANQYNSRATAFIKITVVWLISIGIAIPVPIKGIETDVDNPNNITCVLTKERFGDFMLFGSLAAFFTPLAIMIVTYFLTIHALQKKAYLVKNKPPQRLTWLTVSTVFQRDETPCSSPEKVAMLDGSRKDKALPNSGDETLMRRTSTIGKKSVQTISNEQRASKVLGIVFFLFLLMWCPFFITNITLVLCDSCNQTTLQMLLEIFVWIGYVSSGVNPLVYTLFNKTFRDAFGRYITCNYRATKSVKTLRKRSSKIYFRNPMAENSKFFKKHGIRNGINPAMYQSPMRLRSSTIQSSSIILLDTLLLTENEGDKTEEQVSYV
Briefly: cell-based. The settings on record: Ca^2+ flux, agonist; read-out: 5-HT2B EC50.

For the next data set, the target named is T4, human 5-HT2C receptor (Homo sapiens, UniProt P28335).
T4 sequence (P28335 33-458): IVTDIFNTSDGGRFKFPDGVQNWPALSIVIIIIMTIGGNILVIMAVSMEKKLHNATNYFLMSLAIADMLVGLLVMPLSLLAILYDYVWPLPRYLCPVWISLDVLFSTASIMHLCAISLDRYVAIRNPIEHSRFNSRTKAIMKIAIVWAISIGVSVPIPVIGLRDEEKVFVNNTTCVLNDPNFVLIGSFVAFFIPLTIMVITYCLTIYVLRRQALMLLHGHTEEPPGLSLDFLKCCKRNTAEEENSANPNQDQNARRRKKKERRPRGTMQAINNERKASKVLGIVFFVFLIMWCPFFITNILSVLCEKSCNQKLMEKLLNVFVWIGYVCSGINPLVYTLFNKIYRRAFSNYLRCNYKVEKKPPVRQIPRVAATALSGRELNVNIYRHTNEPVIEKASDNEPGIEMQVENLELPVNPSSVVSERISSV
The data set is described as follows: cell-based. The settings on record: Ca^2+ flux, agonist.

Data set [3] has as its target T1, 5-HT2A receptor. Briefly: PathHunter beta-arrestin recruitment assay at 5-HT2A. It counts as cell-based. Here is the method: The degree of arrestin bias varied substantially across the other compounds tested as well.
Arrestin Functional Assay at 5-HT2A. Recruitment of beta-arrestin was determined using a PathHunter assay at Eurofins DiscoverX (Fremont, Calif.) according to their standard protocols. PathHunter GPCR beta-arrestin assays take advantage of DiscoverX's proprietary Enzyme Fragment Complementation technology. The GPCR is fused in frame with a small enzyme donor fragment ProLink™ (PK) and co-expressed in cells stably expressing a fusion protein of beta-arrestin and the larger, N-terminal deletion mutant of beta-galactosidase. Activation of the GPCR (5-HT2A receptor in this case) stimulates binding of beta-arrestin to the PK-tagged GPCR and forces complementation of the two enzyme fragments, resulting in the formation of an active beta-galactosidase enzyme. This interaction leads to an increase in enzyme activity that can be measured using chemiluminescent PathHunter Detection Reagents. Briefly, PathHunter cells expressing 5-HT2A receptors were seeded in a volume of 20 μL into 384-well plates and incubated at 37° C. for the appropriate time prior to testing. […] Plates were then imaged on a microplate reader and the agonist activity was calculated using the following formula: % Activity=100%×(mean RLU of test sample−mean RLU of vehicle control)/(mean MAX control ligand−mean RLU of vehicle control), where RLU=relative light units.

Data set [4] can be described thus: Metabolic stability in human liver microsomes (HLM). It is filed as in vitro ADME. The settings on record: for t1/2: 1 μM, 0.50 mg protein per mL; for microsomal CLint at 1 μM: both sexes, human, pooled human liver microsomes, pH 7.4, 0.50 mg protein per mL. The source says: HLM Stability. Pooled HLM from adult male and female donors (Corning 452117) were used.

The nature of data set [5]: Metabolic stability in mouse liver microsomes (MLM). It is filed as in vitro ADME. The settings on record: 0.50 mg protein per mL; for t1/2: MLM (CD-1), 1 μM; for microsomal CLint at 1 μM: mouse, pooled mouse liver microsomes, pH 7.4, MLM (CD-1). The source says:
MLM Stability Pooled MLM from CD-1 mice (BIOIVT M00501) were used.

Data set [6] in a line: Metabolic stability in rat liver microsomes (RLM). The settings on record: for t1/2: RLM, 0.50 mg protein per mL; for microsomal CLint at 1 μM: both, rat, pooled rat liver microsomes, pH 7.4.
A further data set has as its system C57BL/6 mice. The data set is described as follows: Head twitch response (HTR) in mice. It is filed as in vivo, mouse. The settings on record: mouse HTR, SC. Here is the method:
Agonists of the 5-HT2A receptor are well known to induce this effect in rodents and the potency of this HTR is correlated with hallucinogenic potency in humans.
Animals. Adult male C57BL/6 mice, aged 6-8 weeks (body weight 20-25 g) were used in this experiment. Animals were housed under controlled temperatures and 12-hour light/dark cycles (lights on between 07:00-19:00 h), with ad libitum food and water. This study was carried out in strict accordance with the requirements of the Committee for the Purpose of Control and Supervision of Experiments on Animals (CPCSEA), India. All efforts were made to minimize suffering.
Drugs and Drug Administration. Compound 1 was synthesized as described above. It was administered subcutaneously (SC) dissolved in saline vehicle at a volume of 10 mL/kg. Five doses were tested, with n=6 animals/group. Doses were calculated on the basis of the freebase.
Procedure. Mice were administered one dose of the drug and immediately placed into a small open field for behavioral observation. Animals were observed continuously for 20 mins and the number of head twitches (HTs) were counted by an observer blind to the treatment condition.
Statistical Analysis. The data points shown are the mean±standard error of the mean (SEM). Analysis was performed using GraphPad Prism 6. Curves were fit using a non-linear gaussian distribution to calculate ED50 and Emax values.
Additional disclosed compounds were tested in the mouse head twitch response (HTR) assay according to the procedure described in Example 43. […] Lastly, compounds with much larger benzyl and phenethyl substituents on the amine nitrogen (e.g., 10 and 11) were low efficacy in this assay, consistent with their lower maximal efficacy in the arrestin functional assay (see Example 41).

Setting [7] is: Ca^2+ flux, agonist, read-out: 5-HT1A EC50.

The values that follow come from patent US20230116703A1, “NOVEL ERGOLINES AND METHODS OF TREATING MOOD DISORDERS” (priority 2021, published 2023).

Like-named read-outs stand apart in the source and are kept apart here. Bounds are passed on as bounds.

T1 sequence (P28223 whole entry): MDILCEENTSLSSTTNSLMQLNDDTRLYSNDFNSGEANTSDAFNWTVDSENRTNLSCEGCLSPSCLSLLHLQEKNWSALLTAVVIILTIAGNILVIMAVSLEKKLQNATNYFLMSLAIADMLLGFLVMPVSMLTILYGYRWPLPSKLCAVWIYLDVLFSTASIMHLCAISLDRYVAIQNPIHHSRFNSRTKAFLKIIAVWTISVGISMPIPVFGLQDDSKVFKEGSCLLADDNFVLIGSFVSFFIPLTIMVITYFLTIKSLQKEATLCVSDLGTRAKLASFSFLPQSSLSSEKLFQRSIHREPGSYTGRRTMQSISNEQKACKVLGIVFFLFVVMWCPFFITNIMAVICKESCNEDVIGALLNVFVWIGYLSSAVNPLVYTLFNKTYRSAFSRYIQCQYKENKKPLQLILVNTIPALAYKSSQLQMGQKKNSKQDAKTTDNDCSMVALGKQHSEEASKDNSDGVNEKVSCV

Consider `CCN(CC)C(=O)[C@H]1C=C2c3cccc4[nH]cc(c34)C[C@H]2N(CCCF)C1` [Compound 2a, (6aR,9S)—N,N-diethyl-7-(3-fluoropropyl)-4,6,6a,7,8,9-hexahydroindolo[4,3-fg]quinoline-9-carboxamide], for which, on 5-HT2A receptor [1], the Ki stood at 115 nM. For the same compound, the EC50 worked out at 169 nM at 5-HT2A receptor [2]; 543 nM at 5-HT1A receptor (setting [7]); 2170 nM on 5-HT2B receptor; 256 nM at human 5-HT2C receptor; 50.6 nM on 5-HT2A receptor [3]. Also, the “t1/2” value came to 17.018 min in data set [4], 1.776 min in data set [5] and 9.673 min in [6]. The microsomal CLint at 1 μM in [4] came out at 81.4 µL/min/mg; in data set [5], 780 µL/min/mg; in data set [6], 143 µL/min/mg.
`CCCN1C[C@@H](C(=O)N[C@H](C)CC)C=C2c3cccc4[nH]cc(c34)C[C@H]21` [Compound 3a, (6aR,9S)—N—((R)-sec-butyl)-7-propyl-4,6,6a,7,8,9-hexahydroindolo[4,3-fg]quinoline-9-carboxamide]: the Ki on 5-HT2A receptor [1] amounted to 27.6 nM. Besides, the EC50 was determined as 146 nM on 5-HT2A receptor [2]; 155 nM at 5-HT1A receptor (setting [7]); 1820 nM on 5-HT2B receptor; 132 nM on human 5-HT2C receptor; 54 nM at 5-HT2A receptor [3]. Further, the “t1/2” value was determined as 2.2 min in [4], 0.6 min in data set [5] and 1.4 min in data set [6]. Also, the microsomal CLint at 1 μM in data set [4] worked out at 63.4 µL/min/mg; in data set [5], 2490 µL/min/mg; in data set [6], 960 µL/min/mg.
`CC[C@@H](C)NC(=O)[C@H]1C=C2c3cccc4[nH]cc(c34)C[C@H]2N(CC)C1` [Compound 5a, (6aR,9S)—N—((R)-sec-butyl)-7-ethyl-4,6,6a,7,8,9-hexahydroindolo[4,3-fg]quinoline-9-carboxamide]: the Ki on 5-HT2A receptor [1] was 74.5 nM. Besides, the EC50 at 5-HT2A receptor [2] was 118 nM; on 5-HT1A receptor (setting [7]) it was 131 nM; at 5-HT2B receptor it was 2510 nM; at human 5-HT2C receptor, 811 nM; at 5-HT2A receptor [3] it was 66.8 nM. Further, the results for the “t1/2” value in data set [4], in data set [5] and in [6] were 5.5 min, 1.7 min and 3.1 min, respectively. For the same compound, the microsomal CLint at 1 μM in data set [4] was 251 µL/min/mg; in data set [5] it was 834 µL/min/mg; in [6], 453 µL/min/mg.
Regarding `C=CCN1C[C@@H](C(=O)N[C@H](C)CC)C=C2c3cccc4[nH]cc(c34)C[C@H]21` [Compound 8a, (6aR,9S)-7-allyl-N—((R)-sec-butyl)-4,6,6a,7,8,9-hexahydroindolo[4,3-fg]quinoline-9-carboxamide], the Ki at 5-HT2A receptor [1] was over 1230 nM. Also, the EC50 at 5-HT2A receptor [2] was 396 nM; at 5-HT1A receptor (setting [7]), 1560 nM; at 5-HT2B receptor, 3590 nM; on human 5-HT2C receptor it was over 10000 nM; at 5-HT2A receptor [3], 1180 nM. Further, the “t1/2” value came out at 3.4 min in [4], 0.8 min in [5] and 1.7 min in [6]. The figures for the microsomal CLint at 1 μM in data set [4], in data set [5] and in [6] were 409 µL/min/mg, 1660 µL/min/mg and 835 µL/min/mg, respectively.
On to `CC[C@@H](C)NC(=O)[C@H]1C=C2c3cccc4[nH]cc(c34)C[C@H]2N(C)C1` [Int8a, (6aR,9S)—N—((R)-sec-butyl)-7-methyl-4,6,6a,7,8,9-hexahydroindolo[4,3-fg]quinoline-9-carboxamide], for which the Ki on 5-HT2A receptor [1] came to 84.3 nM. For the same compound, the 50% effective concentration (EC50) at 5-HT2A receptor [2] is 178 nM; at 5-HT1A receptor (setting [7]), 163 nM; on 5-HT2B receptor, over 10000 nM; on human 5-HT2C receptor, 160 nM; on 5-HT2A receptor [3], 19.3 nM. Further, the entries for the “t1/2” value in data set [4], in data set [5] and in data set [6] were 11.1 min, 1.6 min and 3.5 min, respectively. Moreover, the figures for the microsomal CLint at 1 μM in data set [4], in data set [5] and in [6] were 125 µL/min/mg, 843 µL/min/mg and 394 µL/min/mg, respectively.
With `C[C@H]1C[C@H](C)N1C(=O)[C@@H]1C=C2c3cccc4[nH]cc(c34)C[C@H]2N(C)C1` [Int11, ((2S,4S)-2,4-dimethylazetidin-1-yl)((6aR, 9R)-7-methyl-4,6,6a,7,8,9-hexahydroindolo[4,3-fg]quinolin-9-yl)methanone], the Ki at 5-HT2A receptor [1] was determined as 2.22 nM. Further, the EC50 amounted to 37 nM on 5-HT2A receptor [2], 8.88 nM on 5-HT1A receptor, 96.6 nM on 5-HT2B receptor and 1.57 nM at 5-HT2A receptor [3]. This compound displayed an Emax on 5-HT2A receptor [3] (5-HT2A beta-arrestin) of under 60%. For the same compound, the “agonist type in arrestin recruitment assay (in words)” value on 5-HT2A receptor [3] (5-HT2A beta-arrestin) is recorded as “partial agonists”. Besides, in the data set with C57BL/6 mice (20 min, 20 min observation, curve fit, poor in some cases, read-out: ED50 (95% CI)), the ED50 amounted to 0.0154 mg/kg. In addition, the “Most Efficacious Dose” value in the data set on C57BL/6 mice was determined as 0.1 mg/kg. The “Emax (95% CI)” value with C57BL/6 mice (20 min observation, curve fit, poor in some cases) is listed as 10.93 (9.181-12.76). Also, the figures for the “t1/2” value in [4], in [5] and in data set [6] were 25.7 min, 13.9 min and 54.9 min, respectively. Also, the microsomal CLint at 1 μM in data set [4] turned out to be 53.9 µL/min/mg; in [5], 100 µL/min/mg; in data set [6], 25.3 µL/min/mg.
